Data: patent US20090069565A1, “NEW INDOLE DERIVATIVES AS FACTOR XA INHIBITORS” (priority 2001, published 2009)
Read-outs that look alike come from different tables or passages of the source.

Molecular target: human factor Xa (Homo sapiens, UniProt P00742)
Assay: Factor Xa assay (chromogenic, substrate S-2765);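 note: purified enzyme preincubated with inhibitor for 10 min before substrate addition, final reaction volume 100 µl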
Format: biochemical
[1] = inhibition constant for factor Xa, purified enzyme 0.5 nM, substrate S-2765 140 μM, 25° C., pH 7.8, Ki=IC50/{1+(substrate concentration/Km)}, read-out: Ki(FXa)

human factor Xa, sequence (P00742 235-488 limits assumed): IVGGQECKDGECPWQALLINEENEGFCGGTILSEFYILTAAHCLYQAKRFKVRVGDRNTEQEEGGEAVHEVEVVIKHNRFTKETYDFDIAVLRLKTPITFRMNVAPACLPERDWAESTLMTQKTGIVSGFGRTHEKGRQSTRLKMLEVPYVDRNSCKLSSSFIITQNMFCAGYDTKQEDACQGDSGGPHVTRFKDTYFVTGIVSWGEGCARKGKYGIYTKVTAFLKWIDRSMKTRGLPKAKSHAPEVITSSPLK
human factor Xa, sequence (P00742 41-179 partner limits assumed): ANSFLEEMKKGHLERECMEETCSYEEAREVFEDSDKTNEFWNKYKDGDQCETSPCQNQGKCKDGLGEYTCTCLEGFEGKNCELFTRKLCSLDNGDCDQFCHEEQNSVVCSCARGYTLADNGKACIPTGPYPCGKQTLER

Row | Ki (read-out: Ki(FXa)) | SMILES | also measured
1 | – | CC(C)N1CCC(NC(=O)c2cc3cc(S(C)(=O)=O)ccc3n2Cc2cc(-c3ccc(Cl)s3)on2)CC1 [Example 2] | Ki [1]: 20 nM
2 | – | CC(C)N1CCC(NC(=O)c2cc3cc([N+](=O)[O-])ccc3n2Cc2cc(-c3ccc(Cl)s3)on2)CC1 [Example 3] | Ki [1]: 1 nM
3 | – | CC(C)N1CCC(NC(=O)c2cc3cc(OCc4ccccc4)ccc3n2Cc2cc(-c3ccc(Cl)s3)on2)CC1 [Example 4] | Ki [1]: 834 nM
4 | – | CC(C)N1CCC(NC(=O)c2cc3cc(Cl)ccc3n2Cc2cc(-c3ccc(Cl)s3)on2)CC1 [Example 5] | Ki [1]: 5 nM
5 | 13 nM | COc1ccc2c(c1)cc(C(=O)NC1CCN(C(C)C)CC1)n2Cc1cc(-c2ccc(Cl)s2)on1 [Example 6] | –
6 | 4 nM | COc1ccc2cc(C(=O)NC3CCN(C(C)C)CC3)n(Cc3cc(-c4ccc(Cl)s4)on3)c2c1 [Example 7] | –
7 | – | Cc1ccc2c(c1)cc(C(=O)NC1CCN(C(C)C)CC1)n2Cc1cc(-c2ccc(Cl)s2)on1 [Example 8] | Ki [1]: 9 nM
8 | 3 nM | COc1cc(OC)c2cc(C(=O)NC3CCN(C(C)C)CC3)n(Cc3cc(-c4ccc(Cl)s4)on3)c2c1 [Example 9] | –
9 | 182 nM | COc1cc2cc(C(=O)NC3CCN(C(C)C)CC3)n(Cc3cc(-c4ccc(Cl)s4)on3)c2cc1OC [Example 10] | –
10 | – | CC(C)N1CCC(NC(=O)c2cc3cccc([N+](=O)[O-])c3n2Cc2cc(-c3ccc(Cl)s3)on2)CC1 [Example 11] | Ki [1]: 0.1 nM
11 | 114 nM | CC(C)N1CCC(NC(=O)c2cc3cc(OC(F)(F)F)ccc3n2Cc2cc(-c3ccc(Cl)s3)on2)CC1 [Example 12] | –
12 | 1720 nM | CC(C)N1CCC(NC(=O)c2cc3cccc(NC(=O)C(C)(C)C)c3n2Cc2cc(-c3ccc(Cl)s3)on2)CC1 [Example 14] | –
13 | 3.5 nM | COc1cccc2c1cc(C(=O)NC1CCN(C(C)C)CC1)n2Cc1cc(-c2ccc(Cl)s2)on1 [Example 15] | –
14 | – | CC(C)N1CCC(NC(=O)c2c(-c3ccccc3)c3ccccc3n2Cc2cc(-c3ccc(Cl)s3)on2)CC1 [Example 16] | Ki [1]: 55 nM
15 | 1970 nM | COc1cc2cc(C(=O)NC3CCN(C(C)C)CC3)n(Cc3cc(-c4ccc(Cl)s4)on3)c2cc1O [Example 17] | –
16 | 16 nM | CC(C)N1CCC(NC(=O)c2cc3c(F)cc(F)cc3n2Cc2cc(-c3ccc(Cl)s3)on2)CC1 [Example 18] | –
17 | 50 nM | CC(C)N1CCC(NC(=O)c2cc3c(OCc4ccccc4)cccc3n2Cc2cc(-c3ccc(Cl)s3)on2)CC1 [Example 19] | –
18 | – | CC(C)N1CCC(NC(=O)c2cc3cccc(Cl)c3n2Cc2cc(-c3ccc(Cl)s3)on2)CC1 [Example 20] | Ki: 7 nM
19 | – | CC(C)N1CCC(NC(=O)c2cc3ccc(Cl)cc3n2Cc2cc(-c3ccc(Cl)s3)on2)CC1 [Example 21] | Ki [1]: 7 nM
20 | 217 nM | CCc1ccc2c(c1)cc(C(=O)NC1CCN(C(C)C)CC1)n2Cc1cc(-c2ccc(Cl)s2)on1 [Example 22] | –
21 | – | CC(C)N1CCC(NC(=O)c2cc3cc(F)ccc3n2Cc2cc(-c3ccc(Cl)s3)on2)CC1 [Example 23] | Ki [1]: 3 nM
22 | 132 nM | CC(C)N1CCC(NC(=O)c2c(-c3ccccc3)c3cc([N+](=O)[O-])ccc3n2Cc2cc(-c3ccc(Cl)s3)on2)CC1 [Example 24] | –
23 | 336 nM | CC(C)N1CCC(NC(=O)c2c(-c3ccccc3)c3cc(Cl)ccc3n2Cc2cc(-c3ccc(Cl)s3)on2)CC1 [Example 25] | –
24 | 0.1 nM | CC(C)N1CCC(NC(=O)c2cc3cc(F)cc(F)c3n2Cc2cc(-c3ccc(Cl)s3)on2)CC1 [Example 26] | –

Row | Ki (read-out: Ki(FXa)) | SMILES | also measured
25 | 0.2 nM | CC(C)N1CCC(NC(=O)c2cc3cc([N+](=O)[O-])cc([N+](=O)[O-])c3n2Cc2cc(-c3ccc(Cl)s3)on2)CC1 [Example 27] | –
26 | – | O=C(NC1CCN(c2ccncc2)CC1)c1cc2ccccc2n1Cc1cc(-c2ccc(Cl)s2)on1 [Example 28, 1-[5-(5-Chloro-thiophen-2-yl)-isoxazol-3-ylmethyl]-1H-indole-2-carboxylic acid (3,4,5,6-tetrahydro-2H-[1,4′]bipyridinyl-4-yl)-amide] | Ki [1]: 14 nM
27 | 19 nM | Cc1cccc2cc(C(=O)NC3CCN(c4ccncc4)CC3)n(Cc3cc(-c4ccc(Cl)s4)on3)c12 [Example 29, 1-[5-(5-Chloro-thiophen-2-yl)-isoxazol-3-ylmethyl]-7-methyl-1H-indole-2-carboxylic acid (3,4,5,6-tetrahydro-2H-[1,4′]bipyridinyl-4-yl)-amide] | –
28 | 25 nM | O=C(NC1CCN(c2ccncc2)CC1)c1cc2cc([N+](=O)[O-])ccc2n1Cc1cc(-c2ccc(Cl)s2)on1 [Example 30, 1-[5-(5-Chloro-thiophen-2-yl)-isoxazol-3-ylmethyl]-5-nitro-1H-indole-2-carboxylic acid (3,4,5,6-tetrahydro-2H-[1,4′]bipyridinyl-4-yl)-amide] | –
29 | – | O=C(c1cc2ccccc2n1Cc1cc(-c2ccc(Cl)s2)on1)N1CCC(Nc2ccncc2)CC1 [Example 31, {1-[5-(5-Chloro-thiophen-2-yl)-isoxazol-3-ylmethyl]-1H-indol-2-yl}-[4-(pyridin-4-ylamino)-piperidin-1-yl]-methanone] | Ki [1]: 18 nM
30 | 37 nM | O=C(c1cc2cc([N+](=O)[O-])ccc2n1Cc1cc(-c2ccc(Cl)s2)on1)N1CCC(Nc2ccncc2)CC1 [Example 32, {1-[5-(5-Chloro-thiophen-2-yl)-isoxazol-3-ylmethyl]-5-nitro-1H-indol-2-yl}-[4-(pyridin-4-ylamino)-piperidin-1-yl]-methanone] | –
31 | 11 nM | Cc1cccc2cc(C(=O)N3CCC(Nc4ccncc4)CC3)n(Cc3cc(-c4ccc(Cl)s4)on3)c12 [Example 33, {1-[5-(5-Chloro-thiophen-2-yl)-isoxazol-3-ylmethyl]-7-methyl-1H-indol-2-yl}-[4-(pyridin-4-ylamino)-piperidin-1-yl]-methanone] | –
32 | 502 nM | Cc1cccc2cc(C(=O)N3CCC(NC(C)C)CC3)n(Cc3cc(-c4ccc(Cl)s4)on3)c12 [Example 35, {1-[5-(5-Chloro-thiophen-2-yl)-isoxazol-3-ylmethyl]-7-methyl-1H-indol-2-yl}-(4-isopropylamino-piperidin-1-yl)-methanone] | –
33 | – | CCN1CCC(NC(=O)c2cc3ccccc3n2Cc2cc(-c3ccc(Cl)s3)on2)CC1 [Example 36, 1-[5-(5-Chloro-thiophen-2-yl)-isoxazol-3-ylmethyl]-1H-indole-2-carboxylic acid (1-ethyl-piperidin-4-yl)-amide] | Ki [1]: 18 nM
34 | 3 nM | CCN1CCC(NC(=O)c2cc3cccc(C)c3n2Cc2cc(-c3ccc(Cl)s3)on2)CC1 [Example 37, 1-[5-(5-Chloro-thiophen-2-yl)-isoxazol-3-ylmethyl]-7-methyl-1H-indole-2-carboxylic acid (1-ethyl-piperidin-4-yl)-amide] | –
35 | 701 nM | O=C(c1cc2ccccc2n1Cc1cc(-c2ccc(Cl)s2)on1)N1CCC(N2CCCC2)CC1 [Example 38, {1-[5-(5-Chloro-thiophen-2-yl)-isoxazol-3-ylmethyl]-1H-indol-2-yl}-(4-pyrrolidin-1-yl-piperidin-1-yl)-methanone] | –
36 | 2000 nM | CN1CCC(N2CCN(C(=O)c3cc4ccccc4n3Cc3cc(-c4ccc(Cl)s4)on3)CC2)CC1 [Example 39, {1-[5-(5-Chloro-thiophen-2-yl)-isoxazol-3-ylmethyl]-1H-indol-2-yl}-[4-(1-methyl-piperidin-4-yl)-piperazin-1-yl]-methanone] | –
37 | 1030 nM | O=C(NCC1CC(c2ccncc2)=NO1)c1cc2ccccc2n1Cc1cc(-c2ccc(Cl)s2)on1 (centres unmarked) [Example 41, 1-[5-(5-Chloro-thiophen-2-yl)-isoxazol-3-ylmethyl]-1H-indole-2-carboxylic acid (3-pyridin-4-yl-4,5-dihydro-isoxazol-5-ylmethyl)-amide] | –
38 | 504 nM | O=C(c1cc2ccccc2n1Cc1cc(-c2ccc(Cl)s2)on1)N1CCN(Cc2ccncc2)CC1 [Example 43, {1-[5-(5-Chloro-thiophen-2-yl)-isoxazol-3-ylmethyl]-1H-indol-2-yl}-(4-pyridin-4-ylmethyl-piperazin-1-yl)-methanone] | –
39 | – | O=C(NCC1CCN(c2ccncc2)CC1)c1cc2ccccc2n1Cc1cc(-c2ccc(Cl)s2)on1 [Example 47, 1-[5-(5-Chloro-thiophen-2-yl)-isoxazol-3-ylmethyl]-1H-indole-2-carboxylic acid (3,4,5,6-tetrahydro-2H-[1,4′]bipyridinyl-4-ylmethyl)-amide] | Ki [1]: 64 nM
40 | – | O=C(NC1CCN(C2CC2)CC1)c1cc2ccccc2n1Cc1cc(-c2ccc(Cl)s2)on1 [Example 48, 1-[5-(5-Chloro-thiophen-2-yl)-isoxazol-3-ylmethyl]-1H-indole-2-carboxylic acid (1-cyclopropyl-piperidin-4-yl)-amide] | Ki [1]: 27 nM
41 | 1700 nM | COc1cccc(Cn2c(C(=O)NCC3CCN(c4ccncc4)CC3)cc3ccccc32)c1 [Example 55] | –
42 | 43 nM | COc1cccc(Cn2c(C(=O)NC3CCN(C(C)C)CC3)cc3c(OC)cccc32)c1 [Example 66, 4-Methoxy-1-(3-methoxy-benzyl)-1H-indole-2-carboxylic acid (1-isopropyl-piperidin-4-yl)-amide] | –
43 | 187 nM | COc1cccc(Cn2c(C(=O)NC3CCN(C(C)C)CC3)cc3cc(Cl)ccc32)c1 [Example 67, 5-Chloro-1-(3-methoxy-benzyl)-1H-indole-2-carboxylic acid (1-isopropyl-piperidin-4-yl)-amide] | –
44 | 159 nM | COc1cccc(Cn2c(C(=O)NC3CCN(C(C)C)CC3)cc3cc(C)ccc32)c1 [Example 69, 1-(3-Methoxy-benzyl)-5-methyl-1H-indole-2-carboxylic acid (1-isopropyl-piperidin-4-yl)-amide] | –
45 | 114 nM | COc1cccc(Cn2c(C(=O)NC3CCN(C(C)C)CC3)cc3cc(OCc4ccccc4)ccc32)c1 [Example 70] | –
46 | 277 nM | COc1cccc(Cn2c(C(=O)NC3CCN(C(C)C)CC3)cc3cc([N+](=O)[O-])ccc32)c1 [Example 71, 1-(3-Methoxy-benzyl)-5-nitro-1H-indole-2-carboxylic acid (1-isopropyl-piperidin-4-yl)-amide] | –
47 | 167 nM | COc1cccc(Cn2c(C(=O)NC3CCN(C(C)C)CC3)cc3cc(OC)ccc32)c1 [Example 72, 5-Methoxy-1-(3-methoxy-benzyl)-1H-indole-2-carboxylic acid (1-isopropyl-piperidin-4-yl)-amide] | –
